Publication PMC7055022, “A novel TLR7 agonist as adjuvant to stimulate high quality HBsAg-specific immune responses in an HBV mouse model” (Journal of Translational Medicine, 2020)

Biological target: T1, human TLR7 (hTLR7) (Homo sapiens, UniProt Q9NYK1)
T1 sequence (Q9NYK1 27-1049): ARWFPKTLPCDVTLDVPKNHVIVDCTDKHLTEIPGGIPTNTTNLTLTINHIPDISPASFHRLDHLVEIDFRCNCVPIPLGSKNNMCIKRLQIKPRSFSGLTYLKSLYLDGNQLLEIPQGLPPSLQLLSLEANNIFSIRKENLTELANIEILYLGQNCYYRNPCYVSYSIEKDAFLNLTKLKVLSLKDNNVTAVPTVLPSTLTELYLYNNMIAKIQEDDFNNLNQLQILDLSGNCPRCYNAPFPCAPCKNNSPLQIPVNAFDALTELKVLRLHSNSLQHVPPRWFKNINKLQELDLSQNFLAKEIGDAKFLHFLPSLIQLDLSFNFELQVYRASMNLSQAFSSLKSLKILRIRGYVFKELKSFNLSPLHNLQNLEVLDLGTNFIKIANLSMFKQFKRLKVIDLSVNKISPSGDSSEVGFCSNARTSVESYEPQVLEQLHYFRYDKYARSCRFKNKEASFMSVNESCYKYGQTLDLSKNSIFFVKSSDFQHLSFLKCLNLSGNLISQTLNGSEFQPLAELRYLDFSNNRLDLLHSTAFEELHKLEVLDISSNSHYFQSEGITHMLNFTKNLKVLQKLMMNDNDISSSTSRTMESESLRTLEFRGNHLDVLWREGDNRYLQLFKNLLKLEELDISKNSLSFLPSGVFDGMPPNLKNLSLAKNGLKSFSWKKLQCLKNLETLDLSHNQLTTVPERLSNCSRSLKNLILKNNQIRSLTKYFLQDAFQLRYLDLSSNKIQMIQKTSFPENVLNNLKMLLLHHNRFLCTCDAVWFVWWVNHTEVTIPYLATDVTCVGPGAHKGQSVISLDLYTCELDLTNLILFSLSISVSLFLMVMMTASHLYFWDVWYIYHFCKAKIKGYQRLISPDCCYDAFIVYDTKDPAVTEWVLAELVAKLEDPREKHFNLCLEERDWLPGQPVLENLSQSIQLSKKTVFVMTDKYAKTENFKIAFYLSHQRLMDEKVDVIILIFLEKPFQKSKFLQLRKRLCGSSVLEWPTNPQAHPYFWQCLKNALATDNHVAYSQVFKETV
Assay: HEK-Blue hTLR7 SEAP/NF-κB reporter assay (agonist; inactive in hTLR8 cells)
Format: cell-based

**Q.** With `C=C(CC)C(=O)c1ccc(OCC(=O)NCc2ccc(Cn3c(O)nc4c(N)nc(OCCOC)nc43)cc2)c(Cl)c1Cl` [compound 4, N-(4-((6-amino-8-hydroxy-2-(2-methoxyethoxy)-9H-purin-9-yl)methyl)benzyl)-2-(2,3-dichloro-4-(2-methylenebutanoyl)phenoxy)acetamide] as the compound, how does the “HEK-Blue hTLR7 SEAP/NF-κB reporter assay (agonist; inactive in hTLR8 cells)” value read?
**A.** T7-EA induced more potent SEAP reaction than T7 in HEK-Blue hTLR7 reporter cells
